Results taken from patent publication US20240293400A1, “NOVEL AZAINDOLE DERIVATIVES AS ANTIVIRAL AGENTS” (Centre National de la Recherche Scientifique, priority 2021, published 2024).
pIC50: −log10 of the molar value.

How the values were obtained:
[1] = system: DENV subtype 2 strain (DENV2); experiment: Antiviral activity against the dengue virus in HeLa cells; assay type: cell-based; settings: 72 h, DENV2, 3 days
[2] = system: CHIKV virus, LR-OPY1 strain; experiment: Antiviral activity against the Chikungunya virus in HeLa cells; assay type: cell-based; settings: 24 h
ZIKV BeH8 strain = settings: cited from earlier work

## Nc1nc(Nc2ccc3c(c2)CC[C@@H](N2CCCC2)CC3)nn1-c1cc2c(nn1)-c1ccccc1CCC2 [R428/Bemcentinib, Bemcentinib]
[1]
  pIC50: 6.31
[2]
  pIC50: 6.62
ZIKV BeH8 strain
  concentrations of efficacy against the ZIKV virus described in the literature: 1 to 3 µM
